Results: PubChem BioAssay (NCI)
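Values below derive from 48-hour exposures of cells grown in 96-well plates, with endpoints linearly interpolated between the two concentrations bracketing the appropriate inhibition level. GI50 marks 50% less growth. Definition used: TGI = concentration required for complete inhibition of growth.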

Experiments:
Assay in all cases: DTP human tumour cell line panel, 48 h; in the data active means GI50 below about 0.43 µM; inactive means the rest
786-0 renal = test system: 786-0 renal
A498 renal = test system: A498 renal
A549 NSCLC = test system: A549 NSCLC
ACHN renal = test system: ACHN renal
BT-549 breast = test system: BT-549 breast
CAKI-1 renal = test system: CAKI-1 renal
CCRF-CEM leukemia = test system: CCRF-CEM leukemia
COLO 205 colon = test system: COLO 205 colon
DU-145 prostate = test system: DU-145 prostate
EKVX NSCLC = test system: EKVX NSCLC
HCC-2998 colon = test system: HCC-2998 colon
HCT-116 colon = test system: HCT-116 colon
HCT-15 colon = test system: HCT-15 colon
HL-60(TB) leukemia = test system: HL-60(TB) leukemia
HOP-62 NSCLC = test system: HOP-62 NSCLC
HOP-92 NSCLC = test system: HOP-92 NSCLC
HS 578T breast = test system: HS 578T breast
HT29 colon = test system: HT29 colon
IGROV1 ovarian = test system: IGROV1 ovarian
K-562 leukemia = test system: K-562 leukemia
KM12 colon = test system: KM12 colon
LOX IMVI melanoma = test system: LOX IMVI melanoma
M14 melanoma = test system: M14 melanoma
MALME-3M melanoma = test system: MALME-3M melanoma
MCF7 breast = test system: MCF7 breast
MDA-MB-231 breast = test system: MDA-MB-231 breast
MDA-MB-435 = test system: MDA-MB-435
MOLT-4 leukemia = test system: MOLT-4 leukemia
NCI-H226 lung = test system: NCI-H226 lung
NCI-H23 lung = test system: NCI-H23 lung
NCI-H460 lung = test system: NCI-H460 lung
NCI-H522 lung = test system: NCI-H522 lung
NCI/ADR-RES ovarian = test system: NCI/ADR-RES ovarian
OVCAR-3 ovarian = test system: OVCAR-3 ovarian
OVCAR-4 ovarian = test system: OVCAR-4 ovarian
OVCAR-5 ovarian = test system: OVCAR-5 ovarian
PC-3 prostate = test system: PC-3 prostate
RPMI-8226 leukemia = test system: RPMI-8226 leukemia
RXF 393 renal = test system: RXF 393 renal
SF-268 CNS = test system: SF-268 CNS
SF-295 CNS = test system: SF-295 CNS
SF-539 CNS = test system: SF-539 CNS
SK-MEL-2 melanoma = test system: SK-MEL-2 melanoma
SK-MEL-28 melanoma = test system: SK-MEL-28 melanoma
SK-MEL-5 melanoma = test system: SK-MEL-5 melanoma
SK-OV-3 ovarian = test system: SK-OV-3 ovarian
SN12C renal = test system: SN12C renal
SNB-19 CNS = test system: SNB-19 CNS
SNB-75 CNS = test system: SNB-75 CNS
SR leukemia = test system: SR leukemia
SW-620 colon = test system: SW-620 colon
T-47D breast = test system: T-47D breast
TK-10 renal = test system: TK-10 renal
U251 CNS = test system: U251 CNS
UACC-257 melanoma = test system: UACC-257 melanoma
UACC-62 melanoma = test system: UACC-62 melanoma
UO-31 renal = test system: UO-31 renal

CCOC(=O)c1cc(NS(=O)(=O)c2ccc(C)cc2)cc(C(=O)OCC)c1
68.9 µM: TGI (SNB-75 CNS)
> 100 µM: TGI (786-0 renal) | TGI (A498 renal) | TGI (A549 NSCLC) | TGI (ACHN renal) | TGI (BT-549 breast) | TGI (CAKI-1 renal) | TGI (CCRF-CEM leukemia) | TGI (COLO 205 colon) | TGI (DU-145 prostate) | TGI (EKVX NSCLC) | TGI (HCT-116 colon) | TGI (HCT-15 colon) | TGI (HL-60(TB) leukemia) | TGI (HOP-62 NSCLC) | TGI (HOP-92 NSCLC) | TGI (HT29 colon) | TGI (IGROV1 ovarian) | TGI (K-562 leukemia) | TGI (KM12 colon) | TGI (LOX IMVI melanoma) | TGI (M14 melanoma) | TGI (MALME-3M melanoma) | TGI (MCF7 breast) | TGI (MDA-MB-231 breast) | TGI (MDA-MB-435) | TGI (MOLT-4 leukemia) | TGI (NCI-H226 lung) | TGI (NCI-H23 lung) | TGI (NCI-H460 lung) | TGI (NCI-H522 lung) | TGI (NCI/ADR-RES ovarian) | TGI (OVCAR-3 ovarian) | TGI (OVCAR-5 ovarian) | TGI (PC-3 prostate) | TGI (RPMI-8226 leukemia) | TGI (RXF 393 renal) | TGI (SF-268 CNS) | TGI (SF-295 CNS) | TGI (SF-539 CNS) | TGI (SK-MEL-2 melanoma) | TGI (SK-MEL-5 melanoma) | TGI (SK-OV-3 ovarian) | TGI (SN12C renal) | TGI (SNB-19 CNS) | TGI (SR leukemia) | TGI (SW-620 colon) | TGI (TK-10 renal) | TGI (U251 CNS) | TGI (UACC-257 melanoma) | TGI (UACC-62 melanoma) | TGI (UO-31 renal)
69.9 µM: TGI (HS 578T breast)
83.6 µM: TGI (T-47D breast)
85.5 µM: TGI (OVCAR-4 ovarian)
inactive: GI50 (786-0 renal) 53.7 µM | GI50 (A498 renal) 34.3 µM | GI50 (A549 NSCLC) 41.4 µM | GI50 (ACHN renal) 42.3 µM | GI50 (BT-549 breast) 34.8 µM | GI50 (CAKI-1 renal) 43.5 µM | GI50 (CCRF-CEM leukemia) 37.2 µM | GI50 (COLO 205 colon) 36.1 µM | GI50 (DU-145 prostate) 34.9 µM | GI50 (EKVX NSCLC) 31.7 µM | GI50 (HCC-2998 colon) 19.5 µM | GI50 (HCT-116 colon) 39.5 µM | GI50 (HCT-15 colon) 39.6 µM | GI50 (HL-60(TB) leukemia) 26.5 µM | GI50 (HOP-62 NSCLC) 79.6 µM | GI50 (HOP-92 NSCLC) 32 µM | GI50 (HS 578T breast) 26.4 µM | GI50 (HT29 colon) 82.7 µM | GI50 (IGROV1 ovarian) 51.7 µM | GI50 (K-562 leukemia) 40.2 µM | GI50 (KM12 colon) 55.9 µM | GI50 (LOX IMVI melanoma) 61.4 µM | GI50 (M14 melanoma) 52.5 µM | GI50 (MALME-3M melanoma) > 100 µM | GI50 (MCF7 breast) 28 µM | GI50 (MDA-MB-231 breast) 34.9 µM | GI50 (MDA-MB-435) 33.6 µM | GI50 (MOLT-4 leukemia) 26.6 µM | GI50 (NCI-H226 lung) 54 µM | GI50 (NCI-H23 lung) 38.5 µM | GI50 (NCI-H460 lung) 37.5 µM | GI50 (NCI-H522 lung) 34.5 µM | GI50 (NCI/ADR-RES ovarian) 23.6 µM | GI50 (OVCAR-3 ovarian) 34.5 µM | GI50 (OVCAR-4 ovarian) 21.2 µM | GI50 (OVCAR-5 ovarian) 37.9 µM | GI50 (PC-3 prostate) 47.7 µM | GI50 (RPMI-8226 leukemia) 27 µM | GI50 (RXF 393 renal) > 100 µM | GI50 (SF-268 CNS) 40.4 µM | GI50 (SF-295 CNS) 44.9 µM | GI50 (SF-539 CNS) 49.4 µM | GI50 (SK-MEL-2 melanoma) 28.3 µM | GI50 (SK-MEL-28 melanoma) 27 µM | GI50 (SK-MEL-5 melanoma) 31 µM | GI50 (SK-OV-3 ovarian) 70.7 µM | GI50 (SN12C renal) 78.1 µM | GI50 (SNB-19 CNS) 76.1 µM | GI50 (SNB-75 CNS) 23.1 µM | GI50 (SR leukemia) 34.4 µM | GI50 (SW-620 colon) > 100 µM | GI50 (T-47D breast) 21.1 µM | GI50 (TK-10 renal) > 100 µM | GI50 (U251 CNS) 51.3 µM | GI50 (UACC-257 melanoma) 45.5 µM | GI50 (UACC-62 melanoma) 44.2 µM | GI50 (UO-31 renal) 39.1 µM
93.5 µM: TGI (SK-MEL-28 melanoma)
70.8 µM: TGI (HCC-2998 colon)
